Experimental data as given in a melting point compilation (Tetko et al.; mined from patent text by program, amines drawn as free bases though some values may be those of a salt).

`COc1ccc(F)cc1C1OC(=O)CC1C(=O)O` (stereo not drawn) showed a melting point of 41 to 43 °C. `O=C(NCCO)c1cccc(-c2cccc3nc(Oc4cccc(C(F)(F)F)c4)sc23)c1` gave a melting point of 103 to 104 °C. For `CC(C)(C)Oc1ccc(CCC(=O)O)cc1`, the melting point was 29 to 31 °C. `CCn1c2ccccc2c2cc(NC(=O)c3c(C)cccc3C)ccc21` showed a melting point of 192 to 193 °C. Compound `Cc1c(C(=O)O)cccc1S(=O)(=O)CCO` has a melting point of 160 to 165 °C. `COC(=O)c1nc(-c2ccc(Cl)c(N(C)C)c2F)nc(N)c1C1CC1` showed a melting point of 156 to 158 °C. With `Cc1cc(C)c(-c2cn(C)c3nc(N4CCCCC4)n(C)c(=O)c23)c(C)c1` the melting point was 210 to 212 °C. `CCn1cc(-c2ccncn2)cc(Br)c1=O` gave a melting point of 195 to 197 °C. In the case of `S=C=NC1(Br)C=Cc2nccnc2C1` (stereo not drawn), the melting point was 157 to 158 °C. `CCN1C(=O)C(C)(C)C(=O)N(C)c2cc(OCCCn3cc(I)c(=O)c4ccccc43)ccc21` showed a melting point of 97 to 106 °C. Work on `NCc1ccc(N2CCN(c3ccc(CCC(=O)O)cc3)C2=O)cc1` yielded a melting point greater than 260 °C. `O=C1OC(=O)c2cc3c(cc21)CCOC3` gave a melting point of 156 to 158 °C. `COc1ccc(S(=O)(=O)C2(C(=O)O)CCN(Cc3ccc(OCCN4CCCCC4)cc3)CC2)cc1` gave a melting point of 114 °C. In the case of `CCOCc1nc2c(N)nc(C)c(C)c2n1NC1CCC1`, the melting point was 139 to 141 °C. With `COc1ccc(-c2c(Cl)c(CCl)nc3sc4c(c23)CCN(Cc2ccccc2)C4)cc1OC` the melting point was 171 to 172 °C. `N#CC(Sc1ccccc1)=C1SCCN1c1ccccc1` showed a melting point of 143 to 145 °C. `CCOc1cccc(-c2ccnc3c(C(=O)c4cccs4)cnn23)c1` gave a melting point of 146 to 148 °C. `FC(F)(F)Oc1ccc(-c2ccc(C=CCBr)cc2)cc1` showed a melting point of 121 to 123 °C. In the case of `CN1CCc2[nH]c3ccc4sccc4c3c2C1`, the melting point was 189 °C. Work on `CNC(=O)c1ccc(C2=NOC(c3cc(Cl)cc(Cl)c3)(C(F)(F)F)C2)cc1C` (stereo not drawn) yielded a melting point of 184 to 185 °C. In the case of `CCCOC1C(O)C(CO)OC1n1cnc2c(NC(=O)C(C)C)nc(NC(=O)C(C)C)nc21` (stereo not drawn), the melting point was 140 to 142 °C. Compound `CNC(=O)n1nc(Oc2c(Cl)cc(C(F)(F)F)cc2Cl)cc1C` has a melting point of 113 to 114 °C. For `O=C1CCC(c2nc(-c3ccccc3)c(-c3ccccc3)o2)N1` (stereo not drawn), the melting point was 145 to 147 °C. `COCn1c(C(=O)O)cc2cccc(NS(=O)(=O)c3ccccn3)c21` showed a melting point of 199 to 200 °C. `COC1(OC)C(NC(=O)c2ccccc2O)=CC(=O)C2OC21` (stereo not drawn) gave a melting point of 147 to 149 °C. In the case of `COC1OCC[C@@H]1NC(=O)[C@H](CC(C)C)NC(=O)CNC(=O)C(C)(C)Oc1ccc2c(c1)Nc1ccccc1S2` (stereo partly drawn), the melting point was 100 to 104 °C. Compound `OCc1cn2c(n1)CN=C(c1ccccn1)c1cc(Cl)ccc1-2` has a melting point of 206 to 207 °C. For `COc1cc(OC)cc(C(=CC#N)c2ccc(OC)c(F)c2)c1`, the melting point was 91 to 93 °C. `C#CC(C)(C)CCOc1ccc(Cl)cc1` showed a melting point of 42 to 45 °C. Compound `CC(C)(C)c1ccc(C(=O)Nc2cn3cc(-c4cn[nH]c4)ccc3n2)cn1` has a melting point of 238 to 240 °C. With `CN(C)Cc1ccc(SC2CCN(C(=O)OCc3ccccc3)CC2)cc1` the melting point was 144 °C. For `CCCCCCCN(Cc1ccc(C(C)(C)C)cc1)C(Nc1ccc(Cl)cc1)=C1C(=O)COC1=O`, the melting point was 101 to 104 °C. Compound `COc1cc2c(cc1S(=O)(=O)c1ccc(Br)cc1)[C@@H](N1CCCC1=O)[C@H](O)C(C)(C)O2` (relative stereo) has a melting point of 281 to 282 °C. `O=Cc1cn(Cc2cc(OCc3ccccc3)cc(OCc3ccccc3)c2)cc1-c1ccccc1` gave a melting point of 117 to 118 °C. In the case of `CCCC(O)(Cn1nc[nH]c1=S)c1ccc(Cl)cc1Cl` (stereo not drawn), the melting point was 148 °C. For `O=C(OC1CCCCC1)c1ncn2c1[C@@H]1CCCN1C(=O)c1c(I)cccc1-2`, the melting point was 181 to 182 °C. `CC(C)CCCC(C)NC(=O)Oc1ccc(Oc2ccc(Cl)cc2)cc1` (stereo not drawn) gave a melting point of 46 to 48 °C. In the case of `O=C(O)CN1C(=O)[C@@H](NC(CCc2ccccc2)C(=O)O)CSC1c1ccccc1` (stereo partly drawn), the melting point was 132 to 138 °C. Work on `CCn1cc(C(=O)O)c(=O)c2cc(F)c(N3CC(N)C3)nc21` yielded a melting point of 260 to 262 °C. For `COC(=O)c1cc(-c2ccc(S(C)(=O)=O)cc2)n(C2CCCCCC2)n1`, the melting point was 115 to 117 °C. With `COC(=O)c1ccc([C@H]2CC[C@H](C3OCCO3)CC2)cc1` the melting point was 110 to 111 °C. With `Cc1oc(C(C)C)cc1C(=O)O` the melting point was 88.5 °C. `CCc1nc2cc(OC)c(OC)cc2c(-c2ccc(OC)c(OC)c2)c1CO` showed a melting point of 192 to 193 °C. For `N#CC1(c2ccccc2)CCN(C(=O)N2CCCc3ccccc32)CC1`, the melting point was 53 to 59 °C. `CC(=O)SC[C@H]1CCCCCC[C@H](C(=O)N2C[C@H](O)C[C@H]2C(=O)OCc2ccccc2)NC1=O` gave a melting point of 145 °C. In the case of `OCc1cccc2nc(N3CCCCC3)sc12`, the melting point was 107 to 108 °C. For `CC(C(=O)O)c1ccc(N=c2sccn2C)cc1` (stereo not drawn), the melting point was 130 to 132 °C. With `COC(=O)c1cc(C(F)(F)F)ccc1N` the melting point was 51 to 52 °C. Compound `CCN1C=C(C(=O)O)C(=O)CC1c1ccc(OC)c(OC)c1` (stereo not drawn) has a melting point of 182 to 183 °C. Work on `CCCc1nc(C)c(C=O)n1Cc1ccc(-c2ccccc2C(=O)O)cc1` yielded a melting point of 243 to 245 °C. With `COC(=O)c1cc(C)c(C(OC(=O)C(C)c2ccc3cc(OC)ccc3c2)c2cc(-n3ccnc3)ccc2C)c(C)c1` (stereo not drawn) the melting point was 115 to 117 °C. In the case of `N#CCCN(C=O)CC(=O)O`, the melting point was 112 to 114 °C. With `CN1Cc2cscc2N(CCc2ccccc2)c2ccccc21` the melting point was 53 to 56 °C.
